This note sets out measurements from US7371773B2, “Breast cancer resistance protein (BCRP) inhibitor” (Kabushiki Kaisha Yakult Honsha, priority 2003, dated 2008).

≈ marks a conversion by molar mass, not a printed value. Where two headings read alike, the source gives them in different places.

Assay type in all cases: cell-based, human
For experiment [1], the system named is A549/SN-38-3 cell line. The experiment can be described thus: Anticancer drug sensitivity test, A549/SN-38-3. The settings on record: for IC50: A549/SN-38-3, culturing 48 hours; for Relative resistance value: IC50 for A549/SN-38-3 divided by IC50 for A549. The protocol: (§1) Human non-small cell lung cancer A549 cell line was subcultured at 5% CO2 and 37° C. by use of a Ham's F-12 medium containing 10% FBS, 100 U/mL of penicillin, and 100 μg/mL of streptomycin (10% FBS/Ham's F-12). SN-38-resistant A549 cell lines were selected by subculturing the A549 cell line in a medium for two months while the concentration of SN-38 contained in the medium was increased in a stepwise manner (4 to 10 ng/mL). Subsequently, the resultant SN-38-resistant A549 cell lines were subjected to cloning by means of limiting dilution, to thereby establish six cloned SN-38-resistant A549 cell lines (A549/SN-38-1 to 6).
(§2) The A549 cell line or each of the A549/SN-38-1 to 6 was suspended in 10% FBS/Ham's F-12, and the resultant suspension was inoculated into a 96-well microplate, followed by culturing at 5% CO2 and 37° C. overnight. Thereafter, a solution of an anticancer drug in 10% FBS/Ham's F-12 (50 μL) was added to each of the wells, followed by culturing at 5% CO2 and 37° C. for 48 hours. After completion of culturing, the number of viable cells was counted by use of a viable cell counting reagent [TetraColor ONE (trade name), product of Seikagaku Corporation] according to the attached instruction manual. […] “Relative resistance value” is obtained by dividing the IC50 for an A549/SN-38 cell line by the IC50 for the A549 cell line. The greater the relative resistance value, the higher the level of acquired resistance.

Experiment [2] has as its system A549 cell line. The experiment can be described thus: Anticancer drug sensitivity test, A549 cell line. The settings on record: culturing 48 hours. Here is the method:
as §2

In experiment [3] the test system is A549/SN-38-1 cell line. Put plainly: Anticancer drug sensitivity test, A549/SN-38-1. The settings on record: for IC50: A549/SN-38-1, culturing 48 hours; for Relative resistance value: IC50 for A549/SN-38-1 divided by IC50 for A549. The protocol: as §1, §2
Experiment [4] concerns A549/SN-38-5 cell line. Put plainly: Anticancer drug sensitivity test, A549/SN-38-5. The settings on record: for IC50: A549/SN-38-5, culturing 48 hours; for Relative resistance value: IC50 for A549/SN-38-5 divided by IC50 for A549. The protocol:
as §1, §2

The subject of experiment [5] is A549/SN-38-6 cell line. The experiment can be described thus: Anticancer drug sensitivity test, A549/SN-38-6. To be noted: for IC50: A549/SN-38-6, culturing 48 hours; for Relative resistance value: IC50 for A549/SN-38-6 divided by IC50 for A549. The protocol:
as §1, §2

The subject of experiment [6] is A549/SN-38-2 cell line. The experiment can be described thus: Anticancer drug sensitivity test, A549/SN-38-2. The settings on record: for IC50: A549/SN-38-2, culturing 48 hours; for Relative resistance value: IC50 for A549/SN-38-2 divided by IC50 for A549. Here is the method:
as §1, §2

For experiment [7], the system named is A549/SN-38-4 cell line. The experiment can be described thus: Anticancer drug sensitivity test, A549/SN-38-4. To be noted: for IC50: A549/SN-38-4, culturing 48 hours; for Relative resistance value: IC50 for A549/SN-38-4 divided by IC50 for A549. Here is the method:
as §1, §2

In experiment [8] the test system is A549/SN-38 cell lines. Put plainly: Anticancer drug sensitivity test, A549/SN-38 cell lines as a group. To be noted: BCRP substrates.
The test system of experiment [9] is A549/SN-38-4 cell line. Put plainly: Amount of anticancer drug accumulated in A549/SN-38 cell line. To be noted: SN-38 300 ng/mL, 37° C., 60 minutes.

In general, IC50 refers to the midpoint of a concentration-inhibition curve. As for `Nc1ccn([C@@H]2O[C@H](CO)[C@@H](O)C2(F)F)c(=O)n1` [Gemcitabine], the IC50 in [1] (Homo sapiens, read-out: IC50) was determined as 0.004 µg/mL (≈ 0.0152 µM); in [2] (Homo sapiens, read-out: IC50), 0.009 µg/mL (≈ 0.0342 µM); in experiment [3] (Homo sapiens, read-out: IC50), 0.0039 µg/mL (≈ 0.0148 µM); in experiment [4] (Homo sapiens, read-out: IC50), 0.004 µg/mL (≈ 0.0152 µM); in [5] (Homo sapiens, read-out: IC50) it was 0.004 µg/mL (≈ 0.0152 µM); in experiment [6] (Homo sapiens, read-out: IC50), 0.0053 µg/mL (≈ 0.0201 µM). In addition, the IC50 in experiment [7] (Homo sapiens, read-out: IC50) was determined as 0.0032 µg/mL (≈ 0.0122 µM). The Relative resistance value result is “(0.4)” in experiment [1]; “(0.4)” in experiment [3]; “(0.4)” in experiment [4]; “(0.4)” in experiment [5]; “(0.6)” in experiment [6]; “(0.4)” in [7].

Take `O=c1[nH]cc(F)c(=O)[nH]1` [5-Fluorouracil]: the IC50 in experiment [1] (Homo sapiens, read-out: IC50) came out at 0.69 µg/mL (≈ 5.3 µM); in experiment [2] (Homo sapiens, read-out: IC50), 2.1 µg/mL (≈ 16.1 µM); in experiment [3] (Homo sapiens, read-out: IC50), 4.3 µg/mL (≈ 33.1 µM); in experiment [4] (Homo sapiens, read-out: IC50), 1.7 µg/mL (≈ 13.1 µM); in experiment [5] (Homo sapiens, read-out: IC50) it was 1 µg/mL (≈ 7.69 µM); in experiment [6] (Homo sapiens, read-out: IC50) it was 1.3 µg/mL (≈ 9.99 µM). Also, in [7] (Homo sapiens, read-out: IC50), the IC50 stood at 0.91 µg/mL (≈ 7 µM). The Relative resistance value result is on record as “(0.3)” in [1]; “(2.0)” in experiment [3]; “(0.8)” in experiment [4]; “(0.5)” in [5]; “(0.6)” in experiment [6]; “(0.4)” in experiment [7].

As to `COc1cc([C@@H]2c3cc4c(cc3[C@@H](O[C@@H]3O[C@@H]5CO[C@@H](C)O[C@H]5[C@H](O)[C@H]3O)[C@H]3COC(=O)[C@H]23)OCO4)cc(OC)c1O` [Etoposide], the IC50 in [1] (Homo sapiens, read-out: IC50) was 1.6 µg/mL (≈ 2.72 µM); in experiment [2] (Homo sapiens, read-out: IC50), 0.9 µg/mL (≈ 1.53 µM); in [3] (Homo sapiens, read-out: IC50), 0.27 µg/mL (≈ 0.459 µM); in experiment [4] (Homo sapiens, read-out: IC50), 2.3 µg/mL (≈ 3.91 µM); in experiment [5] (Homo sapiens, read-out: IC50) it was 1 µg/mL (≈ 1.7 µM); in experiment [6] (Homo sapiens, read-out: IC50), 0.8 µg/mL (≈ 1.36 µM). The half-inhibitory concentration (IC50) in experiment [7] (Homo sapiens, read-out: IC50) came to 3.5 µg/mL (≈ 5.95 µM). Besides, the Relative resistance value result was “(1.9)” in experiment [1]; “(0.3)” in experiment [3]; “(2.7)” in [4]; “(1.1)” in [5]; “(1.0)” in [6]; “(4.0)” in experiment [7].

Regarding `CO[C@@]12[C@H](COC(N)=O)C3=C(C(=O)C(C)=C(N)C3=O)N1C[C@@H]1N[C@@H]12` [Mitomycin C], the IC50 came out at 0.0029 µg/mL (≈ 0.00867 µM) in [1]; 0.11 µg/mL (≈ 0.329 µM) in experiment [2]; 0.13 µg/mL (≈ 0.389 µM) in experiment [3]; 0.11 µg/mL (≈ 0.329 µM) in experiment [4]; 0.047 µg/mL (≈ 0.141 µM) in experiment [5]; 0.11 µg/mL (≈ 0.329 µM) in experiment [6]. For the same compound, in experiment [7], the IC50 is 0.15 µg/mL (≈ 0.449 µM). In addition, the Relative resistance value entry is “(0.3)” in [1]; “(1.2)” in experiment [3]; “(1.0)” in experiment [4]; “(0.4)” in experiment [5]; “(1.1)” in experiment [6]; “(1.4)” in experiment [7].

Take `O=C1c2c(O)ccc(O)c2C(=O)c2c(NCCNCCO)ccc(NCCNCCO)c21` [mitoxantrone]: the “Resistance of A549/SN-38 cell lines to the anticancer drug” value in [8] was “particularly strong resistance”.

On to `CCc1c2c(nc3ccc(O)cc13)-c1cc3c(c(=O)n1C2)COC(=O)[C@]3(O)CC` [SN-38, 7-ethyl-10-hydroxycamptothecin], for which the IC50 in experiment [1] turned out to be 0.13 µg/mL (≈ 0.331 µM); in [2], 0.013 µg/mL (≈ 0.0331 µM); in experiment [3] it was 0.12 µg/mL (≈ 0.306 µM); in [4] it was 0.10 µg/mL (≈ 0.255 µM); in experiment [5] it was 0.10 µg/mL (≈ 0.255 µM); in experiment [6], 0.10 µg/mL (≈ 0.255 µM). In addition, the IC50 in experiment [7] is 0.10 µg/mL (≈ 0.255 µM). The Relative resistance value result in experiment [1] is “(9.7)”; in experiment [3], “(9.2)”; in experiment [4], “(7.7)”; in experiment [5], “(7.4)”; in [6] it was “(7.5)”; in [7], “(7.7)”. Moreover, in experiment [8], the “Resistance of A549/SN-38 cell lines to the anticancer drug” value was “particularly strong resistance”. In experiment [9], the “Amount of SN-38 accumulated in A549/SN-38-4 relative to A549 cell line” value was “about ⅕”.

Consider `COc1cccc2c1C(=O)c1c(O)c3c(c(O)c1C2=O)C[C@@](O)(C(=O)CO)C[C@@H]3O[C@H]1C[C@H](N)[C@H](O)[C@H](C)O1` [Doxorubicin], for which the IC50 in experiment [1] (Homo sapiens, read-out: IC50) was 0.12 µg/mL (≈ 0.221 µM); in experiment [2] (Homo sapiens, read-out: IC50), 0.1 µg/mL (≈ 0.184 µM); in experiment [3] (Homo sapiens, read-out: IC50), 0.19 µg/mL (≈ 0.35 µM); in [4] (Homo sapiens, read-out: IC50) it was 0.057 µg/mL (≈ 0.105 µM); in [5] (Homo sapiens, read-out: IC50), 0.049 µg/mL (≈ 0.0902 µM); in experiment [6] (Homo sapiens, read-out: IC50), 0.14 µg/mL (≈ 0.258 µM). Moreover, in experiment [7] (Homo sapiens, read-out: IC50), the IC50 is 0.22 µg/mL (≈ 0.405 µM). The Relative resistance value result in experiment [1] is on record as “(1.3)”; in experiment [3], “(1.9)”; in experiment [4] it was “(0.6)”; in experiment [5], “(0.5)”; in experiment [6] it was “(1.4)”; in experiment [7] it was “(2.3)”.

On to `N.N.[Cl][Pt][Cl]` [Cisplatin], for which the IC50 was 15.1 µg/mL in [1]; 18.6 µg/mL in [2]; 15.1 µg/mL in [3]; 15.9 µg/mL in experiment [4]; 16.8 µg/mL in experiment [5]; 16.5 µg/mL in experiment [6]. The IC50 in [7] stood at 17.0 µg/mL. Moreover, the Relative resistance value entry in experiment [1] is reported as “(0.8)”; in experiment [3], “(0.8)”; in [4], “(0.9)”; in experiment [5], “(0.9)”; in experiment [6], “(0.9)”; in [7] it was “(0.9)”.
